Laboratory results from patent publication US7026344B2, “Treating sickle cell disease” (priority 2000, dated 2006).

Assays:
[1] = system: erythroid progenitors (BFU-E colonies) from normal donors; assay: BFU-E colony growth in methylcellulose culture, normal donors; format: cell-based, human
Description: (§1) BFU-E Colony Growth. Mononuclear cells were isolated from the peripheral blood of each patient studied by density gradient centrifugation using Histapaque-1077 (Sigma). Erythroid progenitors were obtained in methylcellulose culture. ZL was added on day 0 at 25, 50, 75, or 100 μM concentrations for 13–14 days at which time the number of BFU-E colonies were counted on an inverted microscope and harvested for hemoglobin determinations.
The cytotoxic effect of HU as been proposed as a basic mechanism involved in hemoglobin F induction. In the absence of this characteristic for ZL, whether γ gene expression would be, induced in erythroid progenitors obtained from normal donors was tested. Utilizing the same protocol, BFU-E colonies from normal donors wee analyzed in the presence of ZL at 0 to 100 μM concentrations. In normal erythroid progenitors, a decrease in BFU-E colony number from 94±30.6 to 10.1±2.4 (FIG. 3A) and an increase in hemoglobin F from 1.4±0.05% to […] (FIG. 3B) was observed. This pattern was similar to that obtained for Hb SS progenitors. Of note is the lower average BFU-E colony number for hemoglobin A progenitors as compared with hemoglobin S. This probably reflects the absence of hemolysis and increased RBC production in normals as compared to sickle cell patients. This represents a 9.3-fold decrease and a 4.3-fold increase in BFU-E and hemoglobin F, respectively.

[2] = system: fetal hemoglobin production in normal erythroid progenitors; assay: Hemoglobin F determination in erythroid progenitors, normal donors; format: cell-based, human
Description: as §1
Hemoglobin F determination. The erythroid progenitors were collected, washed in PBS then lysed at room temperature in 200 μl of water. The supernatant was split into two tubes, one for total hemoglobin determination and one for hemoglobin F determination. In brief, IgG (10 μl), 1.2 N NaOH (7 μl) and saturated (NH4)2SO4 (70 μl) were added to the hemoglobin F sample. The denatured hemoglobin was pelleted and the supernatant containing hemoglobin F was mixed with 500 μl of tetramethyl benzidine and 500 μl of H2O2 at room temperature then quantitated on a spectrophotometer at 600 nm. The percentage of fetal hemoglobin to total hemoglobin was determined.
The cytotoxic effect of HU as been proposed as a basic mechanism involved in hemoglobin F induction. […] Utilizing the same protocol, BFU-E colonies from normal donors wee analyzed in the presence of ZL at 0 to 100 μM concentrations. […]

[3] = system: fetal hemoglobin production in primary erythroid progenitors from Hb SS patients; conditions: HU 100 μM, Hb SS patients of the HU cohort (Yang et al.); cited from earlier work
[4] = system: primary erythroid progenitors (BFU-E colonies) from Hb SS patients; conditions: HU 100 μM, Hb SS patients of the HU cohort (Yang et al.); cited from earlier work

| Compound | fold decrease in BFU-E ([1]; ZL 0 vs 100 μM) [fold] | BFU-E colony number ([1]; ZL 100 μM) | fold increase in hemoglobin F ([2]; ZL 0 vs 100 μM) [fold] | hemoglobin F ([2]; ZL 100 μM) [%] | HbF [3] [%] | BFU-E [4] |
| --- | --- | --- | --- | --- | --- | --- |
| CC(c1cc2ccccc2s1)N(O)C(N)=O (racemic) [ZL, (±)-1-(1-Benzo[b]thien-2-ylethyl)-1-hydroxyurea] | 9.3 | 10.1±2.4 | 4.3 | 6.0 |  |  |
| NC(=O)NO [HU, Hydroxyurea] |  |  |  |  | 19.4 | 7.2 |
